Source: ChEMBL document CHEMBL3508693

Key:
Assay type in all cases: cell-free
Mus musculus = species: Mus musculus; assay: In vitro plasma protein binding (reported as Fu[%]) of 10,000 ng.ml-1 [14C] aliskiren hemifumarate in pooled plasma samples of mouse; design: conc 10000 ng.ml-1, sampling time 1 h; conditions: CD-1(ICR)BR, tested as the 14C-labelled form, at 10000 ng/mL
Oryctolagus cuniculus = species: Oryctolagus cuniculus; assay: In vitro plasma protein binding (reported as Fu[%]) of 10,000 ng.ml-1 [14C] aliskiren hemifumarate in pooled plasma samples of rabbit; design: conc 10000 ng.ml-1, sampling time 1 h; conditions: New Zealand White, tested as the 14C-labelled form, at 10000 ng/mL
Homo sapiens [1] = species: Homo sapiens; assay: (§1) In vitro plasma protein binding (reported as Fu[%]) of 500 ng.ml-1 [14C] aliskiren hemifumarate in human; design: conc 500 ng.ml-1, sampling time 1 h; conditions: tested as the 14C-labelled form, at 500 ng/mL
Callithrix jacchus = species: Callithrix jacchus; assay: In vitro plasma protein binding (reported as Fu[%]) of 10,000 ng.ml-1 [14C] aliskiren hemifumarate in pooled plasma samples of marmoset; design: conc 10000 ng.ml-1, sampling time 1 h; conditions: tested as the 14C-labelled form, at 10000 ng/mL
Rattus norvegicus = species: Rattus norvegicus; assay: In vitro plasma protein binding (reported as Fu[%]) of 10,000 ng.ml-1 [14C] aliskiren hemifumarate in pooled plasma samples of rat; design: conc 10000 ng.ml-1, sampling time 1 h; conditions: WI(Glx/BRL/Han)BR, tested as the 14C-labelled form, at 10000 ng/mL
Homo sapiens [2] = species: Homo sapiens; assay: as §1; design: conc 500 ng.ml-1, sampling time 1 h; conditions: tested as the 14C-labelled form, at 500 ng/mL; remark: listed apart in the source
Homo sapiens [3] = species: Homo sapiens; assay: as §1; design: conc 500 ng.ml-1, sampling time 1 h; conditions: tested as the 14C-labelled form, at 500 ng/mL; remark: listed apart in the source

For `COCCCOc1cc(C[C@@H](C[C@H](N)[C@@H](O)C[C@H](C(=O)NCC(C)(C)C(N)=O)C(C)C)C(C)C)ccc1OC`, the Fu (Mus musculus) was 28.8%, the Fu (Oryctolagus cuniculus) was 42.5% and the Fu (Homo sapiens [1]) was 49.8%. It also gave a Fu (Callithrix jacchus) of 8.1%, a Fu (Rattus norvegicus) of 38.3% and a Fu (Homo sapiens [2]) of 47.3%. The Fu (Homo sapiens [3]) was 51.4%.
